Legend:
[1] = test system: C57B3L/6 mouse primary T cells; assay: T-cell activation: CD25 expression on primary T cells stimulated with anti-CD3/CD28; type: cell-based; conditions: 10 uM compound, primary T cells stimulated with antibodies to CD3 and CD28
Method: The increase of T cell activation and most importantly T cell function is a strategy for novel immune oncology approaches to promote tumor immunity. In vitro assays using wildtype C57B3L/6 mouse primary T cells are commonly used to assess the impact of compound on T cell activation and function. To assess the ability of compounds disclosed here (e.g., PTPN2 inhibitors) to stimulate T cell activation, primary T cells stimulated with antibodies to CD3 and CD28 are treated with or without exemplary compounds (at 10 uM) disclosed herein are stained with antibodies directed to T-cell activation markers, such as CD25. Additional markers including without limitation CD69, SLAMF6, TIM3, and PD1 can also be employed as a proxy for T cell activation.

PTP1B = biological target: T1, PTP1B (Homo sapiens, UniProt P18031); assay: Phosphatase activity assay (Bio-Biochem-DiFMUP), PTP1B; type: biochemical; conditions: DiFMUP substrate, room temperature
T1 sequence (P18031 1-435): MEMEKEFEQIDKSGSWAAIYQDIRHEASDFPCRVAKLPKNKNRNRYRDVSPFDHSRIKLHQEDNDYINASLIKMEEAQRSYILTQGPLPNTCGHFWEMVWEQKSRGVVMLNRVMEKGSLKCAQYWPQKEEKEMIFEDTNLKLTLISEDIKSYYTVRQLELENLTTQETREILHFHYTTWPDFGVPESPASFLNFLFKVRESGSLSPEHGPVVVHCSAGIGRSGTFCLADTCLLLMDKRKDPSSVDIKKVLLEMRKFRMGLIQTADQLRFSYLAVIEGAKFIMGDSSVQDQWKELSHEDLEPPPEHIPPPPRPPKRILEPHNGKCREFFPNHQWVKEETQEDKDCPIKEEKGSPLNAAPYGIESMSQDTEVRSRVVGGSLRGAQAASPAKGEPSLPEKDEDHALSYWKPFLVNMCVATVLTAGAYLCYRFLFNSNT
Procedure, shortened: (§1)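 Buffer was 50 mM Bis-Tris pH 6.3, 2 mM EDTA, 5 mM DMH, with 10 μM FDP or DiFMUP substrate, enzyme added last, at room temperature. Fluorescent product was read continuously for 15–30 min (DiFMU ex 360/em 450 nm; FMP ex 440/em 530 nm). Initial rates against 10-point inhibitor series were fitted with a 4-parameter equation to give IC50.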

PTPN2 = biological target: T2, PTPN2 (Homo sapiens, UniProt P17706); assay: Phosphatase activity assay (Bio-Biochem-DiFMUP), PTPN2; type: biochemical; conditions: DiFMUP substrate, room temperature
T2 sequence (P17706 1-415): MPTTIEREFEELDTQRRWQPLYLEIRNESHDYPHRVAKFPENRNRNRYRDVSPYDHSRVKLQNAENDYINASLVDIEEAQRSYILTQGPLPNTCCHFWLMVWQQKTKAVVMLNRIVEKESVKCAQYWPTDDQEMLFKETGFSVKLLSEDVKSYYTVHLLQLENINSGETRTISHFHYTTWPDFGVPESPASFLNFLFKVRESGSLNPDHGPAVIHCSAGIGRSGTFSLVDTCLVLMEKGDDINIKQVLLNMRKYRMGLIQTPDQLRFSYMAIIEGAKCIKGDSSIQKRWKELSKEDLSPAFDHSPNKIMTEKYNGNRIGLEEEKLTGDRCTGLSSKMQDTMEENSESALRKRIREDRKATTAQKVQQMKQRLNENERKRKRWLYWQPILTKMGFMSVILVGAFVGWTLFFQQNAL
Procedure, shortened: as §1

Compound	IC50 (PTP1B) [nM]	IC50 (PTPN2) [nM]	% CD25 expression in cells treated with subject compounds relative to negative control (DMSO) [1] [%]
CNc1ccc2cc(O)c(N3CC(=O)NS3(=O)=O)c(F)c2n1 [Compound 153]	≤ 1000	≤ 1000	
CN1CCCC(COc2ccc3cc(O)c(N4CC(=O)NS4(=O)=O)c(F)c3n2)C1 (stereo not drawn) [Compound 176]	≤ 1000	≤ 1000	206
O=C1CN(c2c(O)cc3ccc(OCC4CCS(=O)(=O)CC4)nc3c2F)S(=O)(=O)N1 [Compound 143]	≤ 1000	≤ 1000	323

Now from value to compound, other results behind:

IC50 (PTP1B) [nM]	IC50 (PTPN2) [nM]	Compound	% CD25 expression in cells treated with subject compounds relative to negative control (DMSO) [1] [%]
≤ 1000	≤ 1000	CC(C)CCOc1ccc2cc(O)c(N3CC(=O)NS3(=O)=O)c(F)c2n1 [Compound 135, 5-(8-fluoro-6-hydroxy-2-(isopentyloxy)quinolin-7-yl)-1,2,5-thiadiazolidin-3-one 1,1-dioxide]	431
≤ 1000	≤ 1000	COc1ccc2cc(O)c(N3CC(=O)NS3(=O)=O)c(F)c2n1 [Compound 154]	
≤ 1000	≤ 1000	CC(C)CCNc1ccc2cc(O)c(N3CC(=O)NS3(=O)=O)c(F)c2n1 [Compound 117]	363
≤ 1000	≤ 1000	CN(C)CCOc1ccc2cc(O)c(N3CC(=O)NS3(=O)=O)c(F)c2n1 [Compound 178]	

From patent publication US20240166641A1, “HETEROCYCLES AND USES THEREOF” (Kumquat Biosciences Inc., priority 2021, published 2024)
